# Test results as given in PubChem BioAssay (NCI).
#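 These data come from cells grown in 96-well plates and exposed to compound for 48 hours at five concentrations. TGI: total growth inhibition.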
# Legend:
# Test in all cases: DTP human tumour cell line panel, 48 h
# [1] = system: 786-0 renal
# [2] = system: A498 renal
# [3] = system: A549 NSCLC
# [4] = system: ACHN renal
# [5] = system: BT-549 breast
# [6] = system: CAKI-1 renal
# [7] = system: CCRF-CEM leukemia
# [8] = system: COLO 205 colon
# [9] = system: DU-145 prostate
# [10] = system: HCC-2998 colon
# [11] = system: HCT-116 colon
# [12] = system: HCT-15 colon
# [13] = system: HOP-62 NSCLC
# [14] = system: HOP-92 NSCLC
# [15] = system: HS 578T breast
# [16] = system: HT29 colon
# [17] = system: IGROV1 ovarian
# [18] = system: K-562 leukemia
# [19] = system: KM12 colon
# [20] = system: M14 melanoma
# [21] = system: MALME-3M melanoma
# [22] = system: MCF7 breast
# [23] = system: MDA-MB-231 breast
# [24] = system: MDA-MB-435
# [25] = system: MDA-N
# [26] = system: MOLT-4 leukemia
# [27] = system: NCI-H226 lung
# [28] = system: NCI-H23 lung
# [29] = system: NCI-H460 lung
# [30] = system: NCI-H522 lung
# [31] = system: NCI/ADR-RES ovarian
# [32] = system: OVCAR-3 ovarian
# [33] = system: OVCAR-4 ovarian
# [34] = system: OVCAR-5 ovarian
# [35] = system: OVCAR-8 ovarian
# [36] = system: PC-3 prostate
# [37] = system: RPMI-8226 leukemia
# [38] = system: RXF 393 renal
# [39] = system: SF-268 CNS
# [40] = system: SF-295 CNS
# [41] = system: SF-539 CNS
# [42] = system: SK-MEL-2 melanoma
# [43] = system: SK-MEL-28 melanoma
# [44] = system: SK-MEL-5 melanoma
# [45] = system: SK-OV-3 ovarian
# [46] = system: SN12C renal
# [47] = system: SNB-75 CNS
# [48] = system: SR leukemia
# [49] = system: SW-620 colon
# [50] = system: T-47D breast
# [51] = system: TK-10 renal
# [52] = system: U251 CNS
# [53] = system: UACC-257 melanoma
# [54] = system: UACC-62 melanoma
# [55] = system: UO-31 renal
# [56] = system: HL-60(TB) leukemia
# [57] = system: LOX IMVI melanoma
# [58] = system: SNB-19 CNS
smiles,measurement,setting,value
COc1ccc2c(c1)c1c(n2CCN2CCOCC2)-c2ccccc2CC1,TGI,[1],92.1 µM
same,TGI,[2],> 100 µM
same,TGI,[3],> 100 µM
same,TGI,[4],> 100 µM
same,TGI,[5],> 100 µM
same,TGI,[6],> 100 µM
same,TGI,[7],69.5 µM
same,TGI,[8],30.8 µM
same,TGI,[9],> 100 µM
same,TGI,[10],41.2 µM
same,TGI,[11],> 100 µM
same,TGI,[12],> 100 µM
same,TGI,[13],> 100 µM
same,TGI,[14],> 100 µM
same,TGI,[15],42.8 µM
same,TGI,[16],> 100 µM
same,TGI,[17],> 100 µM
same,TGI,[18],40.2 µM
same,TGI,[19],> 100 µM
same,TGI,[20],> 100 µM
same,TGI,[21],66.6 µM
same,TGI,[22],> 100 µM
same,TGI,[23],> 100 µM
same,TGI,[24],> 100 µM
same,TGI,[25],> 100 µM
same,TGI,[26],48 µM
same,TGI,[27],48.9 µM
same,TGI,[28],> 100 µM
same,TGI,[29],89.2 µM
same,TGI,[30],> 100 µM
same,TGI,[31],> 100 µM
same,TGI,[32],> 100 µM
same,TGI,[33],> 100 µM
same,TGI,[34],> 100 µM
same,TGI,[35],> 100 µM
same,TGI,[36],> 100 µM
same,TGI,[37],64.2 µM
same,TGI,[38],> 100 µM
same,TGI,[39],> 100 µM
same,TGI,[40],> 100 µM
same,TGI,[41],71.3 µM
same,TGI,[42],82.5 µM
same,TGI,[43],> 100 µM
same,TGI,[44],46.3 µM
same,TGI,[45],> 100 µM
same,TGI,[46],69.8 µM
same,TGI,[47],> 100 µM
same,TGI,[48],43.7 µM
same,TGI,[49],> 100 µM
same,TGI,[50],> 100 µM
same,TGI,[51],> 100 µM
same,TGI,[52],> 100 µM
same,TGI,[53],> 100 µM
same,TGI,[54],> 100 µM
same,TGI,[55],> 100 µM
Cc1cn(C2C=CC(COP(=O)(OCC3=CC(=O)c4ccccc4C3=O)N(C)CCCCCl)O2)c(=O)[nH]c1=O (stereo unspecified),TGI,[1],25.3 µM
same,TGI,[3],2.97 µM
same,TGI,[4],26.4 µM
same,TGI,[6],25.9 µM
same,TGI,[7],11.9 µM
same,TGI,[8],10.9 µM
same,TGI,[9],3.06 µM
same,TGI,[10],4.42 µM
same,TGI,[11],26.9 µM
same,TGI,[12],20.9 µM
same,TGI,[56],4.41 µM
same,TGI,[13],23.9 µM
same,TGI,[14],20.9 µM
same,TGI,[15],18.6 µM
same,TGI,[16],29.4 µM
same,TGI,[17],22.4 µM
same,TGI,[18],21.1 µM
same,TGI,[19],28.7 µM
same,TGI,[57],8.66 µM
same,TGI,[20],2.84 µM
same,TGI,[21],0.982 µM
same,TGI,[22],20.5 µM
same,TGI,[23],25.5 µM
same,TGI,[24],3.35 µM
same,TGI,[25],4.22 µM
same,TGI,[26],0.769 µM
same,TGI,[27],25 µM
same,TGI,[28],6.49 µM
same,TGI,[29],11.2 µM
same,TGI,[30],29.4 µM
same,TGI,[31],36.2 µM
same,TGI,[32],19.1 µM
same,TGI,[33],23.2 µM
same,TGI,[34],27.1 µM
same,TGI,[35],26.6 µM
same,TGI,[36],24.5 µM
same,TGI,[37],20.8 µM
same,TGI,[38],15.8 µM
same,TGI,[39],24.4 µM
same,TGI,[40],11.3 µM
same,TGI,[41],25.8 µM
same,TGI,[42],27.2 µM
same,TGI,[43],18.2 µM
same,TGI,[44],2.28 µM
same,TGI,[45],23 µM
same,TGI,[46],23.9 µM
same,TGI,[58],25.6 µM
same,TGI,[47],11.9 µM
same,TGI,[48],2.05 µM
same,TGI,[49],29.3 µM
same,TGI,[50],9.26 µM
same,TGI,[51],36.5 µM
same,TGI,[52],17.7 µM
same,TGI,[53],13.9 µM
same,TGI,[54],14.3 µM
same,TGI,[55],25.4 µM
